Laboratory results as given in publication PMC9727182, “Identification of pharmacokinetic markers for safflower injection using a combination of system pharmacology, multicomponent pharmacokinetics, and quantitative proteomics study” (Frontiers in Pharmacology, 2022).
“And” between values parts separate entries of the source, which are not always exact repeats. Equal entries are not always repeated.

Experiments:
[1] = Stability in diluted SI at room temperature; details: analyzed at 0, 2, 4, 8, 12, 24, and 48 h
[2] = system: H9c2 cardiomyocytes injured by H2O2; experiment: Protection of cardiomyocytes injured by H2O2 (MTT); assay type: cell-based; details: for cell viability vs. model group: pretreated 24 h, 250 μM H2O2 2 h
Procedure: H9c2 cardiomyocytes obtained from Cell Bank of the Chinese Academy of Sciences (Shanghai, China) were cultured in DMEM (high glucose) supplemented with 1% P/S and 15% FBS in 5% CO2 at 37°C. The cells were collected with 0.25% trypsin, followed by re-seeding in 96-well multiplates with a density of 5×10^3 cells per well. The cell experiments were grouped as follows: normal group, model group (H2O2), administration groups and positive control groups (N-Acetyl-L-cysteine, NAC). […] After that, cells were incubated with 0.5 mg/ml of MTT for 4 h under standard condition, followed by addition of 150 µl DMSO into every well. The cell supernatants were finally removed and the optical density (OD) was recorded at 570 nm using a microplate reader (Thermo Fisher Scientific, United States). The protection rate of the compounds on H9c2 cardiomyocytes was calculated as (OD valueadministration group (or NAC group)-OD valuemodel group)/(OD valuenormal group-OD valuemodel group) ×100%.

[3] = Multicomponent pharmacokinetics in rat plasma after i.v. safflower injection (SI); details: for AUC(0-inf) / AUC(0-t) / Cmax / MRT inf / MRT last / Vd / clearance / half-life: male, Sprague-Dawley, rat, iv; for detected mean maximum plasma concentration: rats, after administration of 4 ml/kg of SI
Procedure: The animal experiments were approved by the Animal Care and Use Committee of the College of Animal Science (College of Bee Science), Fujian Agriculture and Forestry University (Approval Number: PZCASFAFU21012). 250 ± 20 g of male Sprague-Dawley (SD) rats were provided by Lab Animal Center in Fujian Medical University (Fuzhou, China).
Ten rats were divided into three groups (Low dose group, n = 4; medium and high groups, n = 3, respectively). […] For each rat, 2 ml of physiological saline was supplemented after 30 min sampling via intraperitoneal injection. The plasma samples were obtained by centrifugation at 3,000 rpm for 10 min and stored at −20°C until analysis.
Clear supernatant (5 μl) was injected into HPLC-MS for bioanalysis.
The sample was separated on a RD-C18 column (4.6 mm × 50 mm, 3.5 μm, Zhongpu Develop, China). The mobile phase incudes water with 0.1% acetic acid (A) and acetonitrile (B). […] The column temperature, flow rate and injection volume were set at 30°C, 0.5 ml/min and 5 μl, respectively.
Non-compartmental model was used to calculate the PK parameters by DAS 3.0 software (Chinese Pharmacologic Society, Beijing, China). A single-tailed t-test was carried out in the study.

[4] = system: H9c2 cardiomyocytes injured by H2O2; experiment: TMT quantitative proteomics of H2O2-injured cardiomyocytes; assay type: cell-based; details: 168 μM
Procedure: The procedures for cell culture, group and administration are similar to those in “2.7. […] Briefly, the difference is that H9c2 cells were seeded and cultured in a culture flask with a bottom area of 25 cm^2 with a density 1×10^5 cells/ml. After treatment, about 3×10^7 cells per group were collected for the next quantitative proteomics investigation, which was done by Jingjie PTM Biolabs (Hangzhou, China). All the procedures for quantitative proteomics can be found in the section of “5. Quantitative proteomics” of the Supplementary Material.
The quantitative proteomics study was carried out according to our previous report ([Li et al., 2022]). Relative quantitative values of proteins in two samples were compared via t-test. […] The identified difference proteins between groups were subjected further to principal component analysis (PCA). […] The subcellular structure location was analyzed using these proteins as objectives.

[5] = Stability of 6 compounds of SI in rat plasma; details: for 10h in auto-sampler vials RE: extracted rat plasma; for 6h at room temperature RE / Freeze-thaw stability (three cycles) RE / Long-term stability (-80℃,15 days) RE: rat plasma
Source text: The LC-MS method was validated by linearity, limits of detection (LOD), limits of quantification (LOQ), precision, accuracy, extraction recovery, matrix effect and stability of the 6 ingredients in rat plasma. Calibration curves were plotted using weighted linear regression of the peak area ratio of analyte to the IS against the corresponding nominal concentration of the analyte. LOD and LOQ were defined as the detectable concentration at which the ratio of signal to noise was more than 3 and 10, respectively. Intra- and inter-day accuracy and precision were assessed by detecting quality control (QC) samples using five replicates of rat samples at three concentration levels on one or three validation days, respectively. Accuracy and precision were expressed by relative error (RE) and relative standard deviation (RSD), respectively. The extraction recovery and matrix effect of the 6 components at above-mentioned three concentration levels were determined. Stability was assessed under the condition of placing un-treated plasma samples at room temperature for 6 h, and extracted plasma samples in auto-sampler for 10 h, as well as placing plasma samples within freeze-thaw three cycles and at −80 °C for 15 days.

[6] = 1 h after administration (2 ml/kg of SI), preliminary test

For `COc1cc(/C=C/CO)cc(OC)c1O[C@@H]1O[C@H](CO)[C@@H](O)[C@H](O)[C@H]1O` [SYR, syringin], the “Stability RSD” value [1] was 2.76%, the “cell viability vs. model group” value ([2]; 5 μM) was “higher cell viability than the model group” and the “cell viability vs. model group” value ([2]; 10 μM) was “higher cell viability than the model group”. The “anti-H2O2 injury effect (protection rate)” value ([2]; 1, 5 and 10 μM) was “concentration-dependent”, the “detection in rat plasma” value [3, 6] was “can be detected” and the “systematic exposure of SYR lower than that of HSYA” value ([3]; after administration of SI) was “over 10 times”. For the same molecule, the AUC(0-inf) ([3]; in vivo, 1 ml/kg) was 116 ± 70.5 ng·h/mL, the AUC(0-t) ([3]; in vivo, 1 ml/kg) was 101 ± 57.4 ng·h/mL and the Cmax ([3]; in vivo, 1 ml/kg) was 260 ± 59.4 ng/mL. The MRT inf ([3]; in vivo, 1 ml/kg) was 22.8 ± 9.6 min, the MRT last ([3]; in vivo, 1 ml/kg) was 16.2 ± 6 min and the Vd ([3]; in vivo, 1 ml/kg) was 0.21 ± 0.07 L/kg. For the same molecule, the clearance ([3]; in vivo, 1 ml/kg) was 11.5 mL/min/kg, the half-life ([3]; in vivo, 1 ml/kg) was 15 ± 5.4 min and the AUC(0-inf) ([3]; in vivo, 2 ml/kg) was 368 ± 78.7 ng·h/mL. The AUC(0-t) ([3]; in vivo, 2 ml/kg) was 363 ± 81.5 ng·h/mL, the Cmax ([3]; in vivo, 2 ml/kg) was 465 ± 42.9 ng/mL and the MRT inf ([3]; in vivo, 2 ml/kg) was 45 ± 8.4 min. It also gave an MRT last ([3]; in vivo, 2 ml/kg) of 41.4 ± 4.2 min, a Vd ([3]; in vivo, 2 ml/kg) of 0.31 ± 0.2 L/kg and a clearance ([3]; in vivo, 2 ml/kg) of 5.67 mL/min/kg. It also gave a half-life ([3]; in vivo, 2 ml/kg) of 36.6 ± 15 min, an AUC(0-inf) ([3]; in vivo, 4 ml/kg) of 592 ± 96.6 ng·h/mL and an AUC(0-t) ([3]; in vivo, 4 ml/kg) of 586 ± 94.4 ng·h/mL. It also gave a Cmax ([3]; in vivo, 4 ml/kg) of 925 ± 38.5 ng/mL, an MRT inf ([3]; in vivo, 4 ml/kg) of 42.6 ± 13.8 min and an MRT last ([3]; in vivo, 4 ml/kg) of 40.2 ± 12.6 min. For the same molecule, the Vd ([3]; in vivo, 4 ml/kg) was 0.31 ± 0.11 L/kg, the clearance ([3]; in vivo, 4 ml/kg) was 6.83 mL/min/kg and the half-life ([3]; in vivo, 4 ml/kg) was 31.8 ± 13.8 min. For the same molecule, the “detected mean maximum plasma concentration” value [3] was 0.93 μg/mL and 2.5 μM, the “proteins downregulated vs. M group” value ([4]; fold change ≤1/1.5, p <0.05) was 231 proteins and the “proteins upregulated vs. M group” value ([4]; fold change ≥1.5, p <0.05) was 131 proteins. The KEGG pathway regulation ([4]; vs. M group) was “downregulated the ribosome pathway and upregulated the lysosome pathway”, the “changed protein expression located at the cytoplasm” value ([4]; vs. M group) was 42.54% and the “changed protein expression located at the nucleus” value ([4]; vs. M group) was 30.39%. The “10h in auto-sampler vials RE” value ([5]; spiked 40 ng/mL) was -12.50%, the “10h in auto-sampler vials RE” value ([5]; spiked 400 ng/mL) was 1.61% and the “10h in auto-sampler vials RE” value ([5]; spiked 10000 ng/mL) was 1.41%. For the same molecule, the “6h at room temperature RE” value ([5]; spiked 40 ng/mL) was -2.50%, the “Freeze-thaw stability (three cycles) RE” value ([5]; spiked 40 ng/mL) was 1.50% and the “Long-term stability (-80℃,15 days) RE” value ([5]; spiked 40 ng/mL) was -9.50%. For the same molecule, the “6h at room temperature RE” value ([5]; spiked 400 ng/mL) was 3.65%, the “Freeze-thaw stability (three cycles) RE” value ([5]; spiked 400 ng/mL) was 2.65% and the “Long-term stability (-80℃,15 days) RE” value ([5]; spiked 400 ng/mL) was 0.30%. For the same molecule, the “6h at room temperature RE” value ([5]; spiked 10000 ng/mL) was 1.55%, the “Freeze-thaw stability (three cycles) RE” value ([5]; spiked 10000 ng/mL) was 2.30% and the “Long-term stability (-80℃,15 days) RE” value ([5]; spiked 10000 ng/mL) was 0.98%.

For `O=Cc1ccc(O)cc1` [p-HBA, p-hydroxybenzaldehyde], the “Stability RSD” value [1] was 4.11%, the protection ([2]; 0.61 μM, preliminary test at maximum detected plasma concentration) was “absence of protection” and the “detection in rat plasma” value [3, 6] was “can be detected”. The “detection in rat plasma” value ([3]; behind 15 min after i.v. low dose administration (1 ml/kg of SI)) was “can’t be detected”, the AUC(0-inf) ([3]; plasma, 2 ml/kg) was 23.4 ± 5.21 ng·h/mL and the AUC(0-t) ([3]; plasma, 2 ml/kg) was 20.1 ± 4.4 ng·h/mL. It also gave a Cmax ([3]; plasma, 2 ml/kg) of 44.7 ± 5.13 ng/mL, an MRT inf ([3]; plasma, 2 ml/kg) of 40.2 ± 6.6 min and an MRT last ([3]; plasma, 2 ml/kg) of 25.8 ± 2.4 min. The Vd ([3]; plasma, 2 ml/kg) was 0.35 ± 0.04 L/kg, the clearance ([3]; plasma, 2 ml/kg) was 8.83 mL/min/kg and the half-life ([3]; plasma, 2 ml/kg) was 28.8 ± 6.6 min. It also gave an AUC(0-inf) ([3]; plasma, 4 ml/kg) of 44 ± 45.2 ng·h/mL, an AUC(0-t) ([3]; plasma, 4 ml/kg) of 35.2 ± 31.1 ng·h/mL and a Cmax ([3]; plasma, 4 ml/kg) of 74.3 ± 2.52 ng/mL. It also gave an MRT inf ([3]; plasma, 4 ml/kg) of 31.8 ± 31.8 min, an MRT last ([3]; plasma, 4 ml/kg) of 19.2 ± 15 min and a Vd ([3]; plasma, 4 ml/kg) of 0.34 ± 0.09 L/kg. The clearance ([3]; plasma, 4 ml/kg) was 16.5 mL/min/kg, the half-life ([3]; plasma, 4 ml/kg) was 23.4 ± 21 min and the “detected mean maximum plasma concentration” value [3] was 0.074 μg/mL and 0.61 μM. The “10h in auto-sampler vials RE” value ([5]; spiked 40 ng/mL) was -2.50%, the “10h in auto-sampler vials RE” value ([5]; spiked 400 ng/mL) was 0.63% and the “10h in auto-sampler vials RE” value ([5]; spiked 10000 ng/mL) was 4.23%. The “Freeze-thaw stability (three cycles) RE” value ([5]; spiked 40 ng/mL) was 1.00%, the “Long-term stability (-80℃,15 days) RE” value ([5]; spiked 40 ng/mL) was 14.50% and the “6h at room temperature RE” value ([5]; spiked 400 ng/mL) was -3.70%. For the same molecule, the “Freeze-thaw stability (three cycles) RE” value ([5]; spiked 400 ng/mL) was 4.05%, the “Long-term stability (-80℃,15 days) RE” value ([5]; spiked 400 ng/mL) was 0.45% and the “6h at room temperature RE” value ([5]; spiked 10000 ng/mL) was -3.91%. For the same molecule, the “Freeze-thaw stability (three cycles) RE” value ([5]; spiked 10000 ng/mL) was -3.10% and the “Long-term stability (-80℃,15 days) RE” value ([5]; spiked 10000 ng/mL) was 3.02%.
